pIC50: −log10 of the molar value.

The test system of the assay is TNFα release from human peripheral blood mononuclear cells. Kind of assay: Inhibition of LPS-stimulated TNFα release from human peripheral blood mononuclear cells (TNFα screen). The settings on record: human PBMC, LPS stimulation, 18 hours incubation, TNFα in supernatant by ELISA. Type of assay: cell-based. As to the method: Venous blood is collected from healthy volunteers and the mononuclear cells purified by centrifugation through Histopaque (Ficoll) cushions. TNFα production from these cells is stimulated by addition of lipopolysaccharide. After 18 hours incubation in the presence of LPS, the cell supernatant is removed and the concentration of TNFa in the supernatant determined by ELISA. Addition of PDE4 inhibitors reduces the. amount of TNFQ produced. An IC50 is determined which is equal to the concentration of compound that gives 50% inhibition TNFα production as compared to the LPS stimulated control wells.
(An ELISA detects its analyte on a solid surface through an enzyme-linked reagent.)

The pIC50 is −log10 of the IC50, conventionally taken in molar units. The compound `O=C(N[C@H]1CC[C@H](NC(=O)c2cc(F)cnc2Oc2ccc3c(c2)OCO3)CC1)c1ccc(O)cc1` [Example 6] showed a pIC50 of 7.63.

The compound `Cc1ccc(O)c(C(=O)N[C@H]2CC[C@H](NC(=O)c3cc(F)cnc3Oc3ccc4c(c3)OCO4)CC2)c1` [Example 8] gave a pIC50 of 7.66.

In turn, `O=C(N[C@H]1CC[C@H](NC(=O)c2c(O)cccc2F)CC1)c1cc(F)cnc1Oc1ccc(F)cc1` [Example 17] showed a pIC50 of 8.07.

`O=C(N[C@H]1CC[C@H](NC(=O)c2cc(F)cnc2Oc2ccc(F)cc2)CC1)c1cc(Cl)ccc1O` [Example 20] had a pIC50 of 6.95.

With `O=C(N[C@H]1CC[C@H](NC(=O)c2ccc3ccccc3c2O)CC1)c1cc(F)cnc1Oc1ccc(F)cc1` [Example 22], the pIC50 was 6.81.

The compound `COc1ccc(C(=O)N[C@H]2CC[C@H](NC(=O)c3cc(F)cnc3Oc3ccc(F)cc3)CC2)c(O)c1` [Example 23] showed a pIC50 of 8.11.

On to `O=C(Cc1cccc(O)c1)N[C@H]1CC[C@H](NC(=O)c2cc(F)cnc2Oc2ccc(F)cc2)CC1` [Example 25], for which the pIC50 was 8.07. The pIC50 values of the last two compounds are within 0.2 log units of each other.

For `O=C(N[C@H]1CC[C@H](NC(=O)c2cc(F)cnc2Oc2ccc(F)cc2)CC1)c1cc(O)ccc1O` [Example 26], the pIC50 was 8.27.

Take `O=C(N[C@H]1CC[C@H](NC(=O)c2ncccc2O)CC1)c1cc(F)cnc1Oc1ccc(F)cc1` [Example 27]: the pIC50 is 7.40.

`O=C(CCc1cccc(O)c1)N[C@H]1CC[C@H](NC(=O)c2cc(F)cnc2Oc2ccc(F)cc2)CC1` [Example 28] showed a negative logarithm of the IC50 (pIC50) of 6.66.

Regarding `COc1cc(O)c(C(=O)N[C@H]2CC[C@H](NC(=O)c3cc(F)cnc3Oc3ccc(F)cc3)CC2)c(OC)c1` [Example 30], the pIC50 is 8.59.

`O=C(NC1CCC(NC(=O)c2c(O)cccc2F)CC1)c1cc(F)cnc1Oc1ccc(F)c(F)c1` (stereo not drawn) [Example 41, Anti-5-Fluoro-2-(3,4-difluoro-phenoxy)-N-[4-(2-fluoro-6-hydroxy-benzoylmino)-cyclohexyl]-Nicotinamide]: the pIC50 is 8.31.

`CC(=O)N(Cc1ccccc1O)C1CCC(NC(=O)c2cc(F)cnc2Oc2ccc(F)cc2)CC1` (stereo not drawn) [Example 44, Anti-N-{4-[Acetyl-(2-hydroxybenzyl)-amino]-cyclohexyl}-5-fluoro-2-(4-fluoro-phenoxy)-nicotinamide]: the pIC50 was 7.04.

As for `Cc1ccc(C(=O)NC2CCC(NC(=O)c3cc(F)cnc3Oc3ccc(F)cc3)CC2)c(O)c1` (stereo not drawn) [Example 47, Syn-5-Fluoro-2-(4-fluoro-phenoxy)-N-[4-(2-hydroxy-4-methyl-benzoylamino)-cyclohexyl]-nicotinamide], the pIC50 is 9.55.

With `O=C(N[C@H]1CC[C@@H](NC(=O)c2cc(F)cnc2Oc2ccc(F)cc2)CC1)c1cccc(O)c1` [Example 48], the pIC50 is 8.78.

For `O=C(Cc1ccccc1O)N[C@H]1CC[C@@H](NC(=O)c2cc(F)cnc2Oc2ccc(F)cc2)CC1` [Example 51], the pIC50 is 8.68.

Compound `COc1ccc(C(=O)N[C@H]2CC[C@@H](NC(=O)c3cc(F)cnc3Oc3ccc(F)cc3)CC2)cc1O` [Example 54] had a pIC50 of 8.55.

In turn, `O=C(Cc1ccc(O)c(F)c1)N[C@H]1CC[C@@H](NC(=O)c2cc(F)cnc2Oc2ccc(F)cc2)CC1` [Example 56] gave a pIC50 of 8.72.

`O=C(Cc1ccc(O)c(Cl)c1)N[C@H]1CC[C@@H](NC(=O)c2cc(F)cnc2Oc2ccc(F)cc2)CC1` [Example 58] had a negative-log IC50 (pIC50) of 8.46.

In the case of `O=C(NCc1ccccc1O)NC1CCC(NC(=O)c2cc(F)cnc2Oc2ccc(F)cc2)CC1` (stereo not drawn) [Example 72, Syn-5-Fluoro-2-(4-fluoro-phenoxy)-N-{4-[3-(2-hydroxy-benzyl)-ureido]-cyclohexyl}-nicotinamide], the pIC50 was 8.96.

`O=C(O)c1ccccc1C(=O)NC1CCC(NC(=O)c2cc(F)cnc2Oc2ccc(F)cc2)CC1` (stereo not drawn) [Example 76] showed a pIC50 of 7.31. Against the preceding compound, the pIC50 is 1.65 log units lower.

For the origin of these results see patent US20030220361A1, “Nicotinamide derivatives and a tiotropium salt in combination for the treatment of diseases” (priority 2002, published 2003).
